Experimental data as given in the NIST ThermoML archive (doi:10.1016/j.jct.2007.11.009).

Assay: xn = mol fraction of the nth substance listed
Settings: Liquid, Vibrating tube method

CCCCCCCC [octane] + c1ccccc1
mass density [kg/m3]
Settings | x1 = 0.1097 | x1 = 0.2036 | x1 = 0.2984 | x1 = 0.4069 | x1 = 0.5027 | x1 = 0.5904 | x1 = 0.6989 | x1 = 0.7964 | x1 = 0.904 | x1 = 1
318.15 K, 100 kPa | 818.2 | 794.1 | 773.6 | 753.6 | 738.1 | 725.8 | 712.4 | 701.5 | 691.1 | 682.8
318.15 K, 2130 kPa | 820.2 | 796.1 | 775.6 | 755.6 | 740.1 | 727.8 | 714.4 | 703.5 | 693.1 | 684.7
318.15 K, 4150 kPa | 822.1 | 798.1 | 777.6 | 757.6 | 742.1 | 729.8 | 716.4 | 705.5 | 695.1 | 686.7
318.15 K, 6180 kPa | 824 | 800 | 779.5 | 759.5 | 744 | 731.7 | 718.3 | 707.4 | 696.9 | 688.6
318.15 K, 8210 kPa | 825.8 | 801.9 | 781.4 | 761.4 | 745.9 | 733.6 | 720.2 | 709.3 | 698.8 | 690.4
318.15 K, 10230 kPa | 827.7 | 803.7 | 783.3 | 763.3 | 747.8 | 735.5 | 722 | 711.1 | 700.6 | 692.2
318.15 K, 11250 kPa | 828.6 | 804.6 | 784.2 | 764.2 | 748.7 | 736.4 | 722.9 | 712 | 701.5 | 693.1
318.15 K, 12260 kPa | 829.4 | 805.5 | 785.1 | 765.1 | 749.6 | 737.3 | 723.8 | 713 | 702.4 | 694
318.15 K, 14290 kPa | 831.2 | 807.3 | 786.8 | 766.9 | 751.4 | 739.1 | 725.6 | 714.7 | 704.2 | 695.7
318.15 K, 16310 kPa | 832.9 | 809 | 788.6 | 768.6 | 753.2 | 740.8 | 727.3 | 716.4 | 705.9 | 697.4
318.15 K, 18340 kPa | 834.6 | 810.7 | 790.3 | 770.3 | 754.9 | 742.5 | 729 | 718.1 | 707.5 | 699.1
318.15 K, 20370 kPa | 836.2 | 812.4 | 792 | 772 | 756.6 | 744.2 | 730.7 | 719.8 | 709.2 | 700.7
318.15 K, 22390 kPa | 837.9 | 814.1 | 793.6 | 773.7 | 758.2 | 745.8 | 732.3 | 721.4 | 710.8 | 702.3
318.15 K, 24420 kPa | 839.5 | 815.7 | 795.3 | 775.3 | 759.8 | 747.4 | 733.9 | 723 | 712.4 | 703.9
318.15 K, 26450 kPa | 841 | 817.3 | 796.8 | 776.9 | 761.4 | 749 | 735.5 | 724.5 | 713.9 | 705.4
318.15 K, 28470 kPa | 842.6 | 818.8 | 798.5 | 778.5 | 763 | 750.6 | 737 | 726.1 | 715.4 | 706.9
318.15 K, 29490 kPa | 843.3 | 819.6 | 799.2 | 779.2 | 763.7 | 751.4 | 737.8 | 726.8 | 716.1 | 707.6
318.15 K, 30500 kPa | 844.1 | 820.4 | 799.9 | 780 | 764.5 | 752.1 | 738.5 | 727.5 | 716.9 | 708.3
318.15 K, 32530 kPa | 845.6 | 821.9 | 801.4 | 781.5 | 766 | 753.6 | 740 | 729 | 718.3 | 709.7
318.15 K, 34550 kPa | 847.1 | 823.4 | 802.9 | 783 | 767.5 | 755.1 | 741.5 | 730.5 | 719.7 | 711.2
318.15 K, 36580 kPa | 848.5 | 824.8 | 804.4 | 784.4 | 768.9 | 756.5 | 742.9 | 731.9 | 721.1 | 712.5
318.15 K, 38600 kPa | 850 | 826.3 | 805.8 | 785.9 | 770.4 | 757.9 | 744.3 | 733.3 | 722.5 | 713.9
318.15 K, 39620 kPa | 850.7 | 827 | 806.5 | 786.6 | 771.1 | 758.6 | 745 | 734 | 723.2 | 714.6
328.15 K, 100 kPa | 807.9 | 784.5 | 764.1 | 744.3 | 729.2 | 717 | 704 | 693.3 | 683 | 674.5
328.15 K, 2130 kPa | 810 | 786.7 | 766.2 | 746.5 | 731.4 | 719.1 | 706.1 | 695.5 | 685.1 | 676.6
328.15 K, 4150 kPa | 812.1 | 788.7 | 768.3 | 748.6 | 733.5 | 721.2 | 708.2 | 697.6 | 687.2 | 678.7
328.15 K, 6180 kPa | 814.1 | 790.8 | 770.4 | 750.7 | 735.6 | 723.3 | 710.3 | 699.7 | 689.2 | 680.7
328.15 K, 8210 kPa | 816.1 | 792.8 | 772.4 | 752.7 | 737.6 | 725.3 | 712.3 | 701.7 | 691.2 | 682.6
328.15 K, 10230 kPa | 818 | 794.7 | 774.4 | 754.7 | 739.6 | 727.3 | 714.3 | 703.7 | 693.2 | 684.6
328.15 K, 11250 kPa | 818.9 | 795.7 | 775.3 | 755.6 | 740.6 | 728.3 | 715.2 | 704.6 | 694.1 | 685.5
328.15 K, 12260 kPa | 819.9 | 796.6 | 776.3 | 756.6 | 741.5 | 729.2 | 716.2 | 705.6 | 695 | 686.4
328.15 K, 14290 kPa | 821.7 | 798.5 | 778.2 | 758.5 | 743.4 | 731.1 | 718.1 | 707.4 | 696.9 | 688.3
328.15 K, 16310 kPa | 823.6 | 800.4 | 780.1 | 760.4 | 745.3 | 733 | 719.9 | 709.3 | 698.7 | 690.1
328.15 K, 18340 kPa | 825.3 | 802.1 | 781.9 | 762.2 | 747.1 | 734.8 | 721.7 | 711.2 | 700.5 | 691.8
328.15 K, 20370 kPa | 827.1 | 803.9 | 783.6 | 763.9 | 748.9 | 736.6 | 723.4 | 713 | 702.2 | 693.6
328.15 K, 22390 kPa | 828.8 | 805.7 | 785.4 | 765.7 | 750.6 | 738.3 | 725.1 | 714.5 | 703.9 | 695.2
328.15 K, 24420 kPa | 830.5 | 807.4 | 787.1 | 767.4 | 752.3 | 740 | 726.8 | 716.2 | 705.6 | 696.9
328.15 K, 26450 kPa | 832.2 | 809.1 | 788.8 | 769.1 | 754 | 741.6 | 728.5 | 717.8 | 707.2 | 698.5
328.15 K, 28470 kPa | 833.8 | 810.7 | 790.4 | 770.7 | 755.6 | 743.2 | 730.1 | 719.4 | 708.8 | 700
328.15 K, 29490 kPa | 834.6 | 811.5 | 791.2 | 771.5 | 756.4 | 744 | 730.9 | 720.1 | 709.6 | 700.8
328.15 K, 30500 kPa | 835.4 | 812.3 | 792 | 772.3 | 757.2 | 744.8 | 731.7 | 720.9 | 710.3 | 701.6
328.15 K, 32530 kPa | 837 | 813.9 | 793.6 | 773.9 | 758.8 | 746.4 | 733.2 | 722.5 | 711.9 | 703
328.15 K, 34550 kPa | 838.5 | 815.5 | 795.2 | 775.4 | 760.3 | 747.9 | 734.7 | 724 | 713.4 | 704.5
328.15 K, 36580 kPa | 840 | 817 | 796.7 | 777 | 761.8 | 749.4 | 736.2 | 725.5 | 714.8 | 706
328.15 K, 38600 kPa | 841.5 | 818.5 | 798.2 | 778.4 | 763.3 | 750.9 | 737.7 | 726.9 | 716.2 | 707.4
328.15 K, 39620 kPa | 842.3 | 819.1 | 798.9 | 779.2 | 764 | 751.6 | 738.4 | 727.6 | 716.9 | 708.1
